Measured values: US20250057793A1, “BENZOIC ACID SALTS FOR TREATMENT OF NERVOUS SYSTEM INJURIES AND DISORDERS” (The United States Government as represented by the …, priority 2021, published 2025)

Tests used:
[1] = tested on: mice with TBI; experiment: Side effects of oral NaB in TBI mice; type: in vivo, mouse
[2] = tested on: oligodendroglial progenitor cells (OPCs); experiment: Maturation of oligodendroglial progenitor cells (OPCs) into oligodendrocytes; type: cell-based, mouse
Method: FIGS. 15A-15L: Effect of sodium benzoate (NaB) on the maturation of oligodendroglial progenitor cells (OPCs) into oligodendrocytes. OPCs were isolated from P1˜P2 neonatal mouse pups, cultured in OPC media for 4 days in vitro (DIV) followed by treatment with 100 μM NaB and sodium formate (NaFO) in the absence of FGF and PDGF.
FIG. 15A) After 18 h of 100 μM NaB treatment in serum-free condition, cells were fixed and then dual immuno-stained with MBP (red) and OPC marker NG2 (green). Nuclei were stained with DAPI (blue). FIG. 15B) Similarly, OPCs were stained with PLP (red) and A2B5 (green) under similar treatment condition. Quantification of MBP+(FIG. 15C), NG2+(FIG. 15D), PLP+(FIG. 15E), and A2B5+(FIG. 15F) cells as a percentage of total cells (DAPI+). Average 5 fields per slide, total 3 slides. Results are mean+SEM. ***p<0.001. FIG. 15G) For protein expression, cells were treated with different doses of NaB for 18 h under serum free condition and then immunoblotted with PLP and MOG. FIG. 15H) Densitometric analyses of the bands relative to beta actin were done for PLP and MOG. ^ap<0.001 vs. control PLP; ^bp<0.005 vs. control MOG. FIG. 151) Cells were treated with NaB (100 μM) and NaFO (100 μM) for 4 h under serum-free condition followed by monitoring the mRNA expression of myelin-specific genes by real-time PCR (ap<0.01 vs. control PLP; ^bp<0.01 vs. control MOG; cp<0.01 vs. control MBP; dp<0.01 vs. control CNPase). OPCs were cultured on the top of randomly-oriented polycaprolactone nanofibers (Nanofiber Solutions; Cat #Z694576) for 7 days. After that, these cells were treated with 100 μM NaB (FIG. 15J) and NaFO (K) for additional 2 days followed by immunofluorescence analysis for MBP (red) (FIG. 15J, control; FIG. 15K, NaB; FIG. 15L, NaFO). […] Representative 3D constructed images of OPCs adhered to nanofibers were also shown at the right side.

[3] = mice treated with cinnamon orally; cited from earlier work
[4] = tested on: mice with traumatic brain injury (TBI); experiment: Remyelination in corpus callosum of mice with TBI (PLP/A2B5 double-labeling); type: in vivo, mouse; conditions: 50 mg/kg body weight/day oral gavage
Method: FIG. 4 are images of the corpus collosum in mice showing the levels of proteolipid protein (PLP) and A2B5, a marker of oligodendroglial progenitor cells (OPC), in the experimental conditions after 21 days. Oral administration of sodium benzoate (NaB), but not sodium formate (NaFO), stimulates remyelination in mice with traumatic brain injury (TBI). Mice (n=6 per group) were induced moderate TBI by controlled cortical impact (CCI). Starting from 2 hours after TBI, mice were treated with NaB and NaFO (50 mg/kg body weight/day; mixed with water) orally via gavage. After 21 d of treatment, brain sections were double-labeled for PLP and A2B5.
Proteolipid protein (PLP) is a marker of oligodendrocytes and A2B5 is a marker of oligodendroglial progenitor cells (OPC). After 21 days of treatment, brain sections were double-labeled with antibodies against PLP and A2B5.

[5] = different doses of NaB, 18 h, serum free

O=C([O-])c1ccccc1.[Na+] [NaB, Sodium benzoate]
side effects (decrease in body weight, loss of hair, fecal boli, infection, untoward behavior) [1]: did not cause any side effects
mRNA expression of myelin-specific genes (MBP, PLP, MOG, CNPase), real-time PCR ([2]; 100 μM, 4 h, serum-free): corroborated
differentiation/maturation of OPCs into oligodendrocytes (MBP+, PLP+, NG2+, A2B5+ cells) ([2]; 100 μM, 18 h, serum-free, absence of FGF and PDGF): stimulated
level of MOG in OPCs (immunoblot) [2, 5]: increased
level of PLP in OPCs (immunoblot) [2, 5]: increased
presence of NaB in the brain [3]: detected in the brain
level of PLP in corpus callosum ([4]; 21 days of treatment): markedly increased
number of OPCs (A2B5 positive) in corpus callosum ([4]; 21 days of treatment): decreased
remyelination ([4]; 21 d of treatment): stimulates
